The values below come from publication PMC6272674, “Selected Compounds Structurally Related to Acyclic Sesquiterpenoids and Their Antibacterial and Cytotoxic Activity” (Molecules, 2015).

In general, viability refers to a read-out of living cells in per cent, often relative to untreated cells.

Data set [1] concerns Acinetobacter baumannii ATCC 19606. On the set-up: method as in doi:10.1002/ffj.3238. Particulars: data presented by the authors before; cited from earlier work.
For data set [2], the system named is Staphylococcus aureus ATCC 43300. Set-up: method as in doi:10.1002/ffj.3238. The following applies: data presented by the authors before; cited from earlier work.
Data set [3] relates to Enterococcus faecalis ATCC 51299. Set-up: method as in doi:10.1002/ffj.3238. The following applies: data presented by the authors before; cited from earlier work.
A short description of another data set: MTT viability, HFIG. Type of data set: cell-based, human. Particulars: human, HFIG (HFIB-G) gingival fibroblasts, 1000 µM (IC50 exceeded 1000 µM), read-out: viability ± standard deviation at 1000 µM. The procedure, abridged:
(§1)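 Viability is given as the optical density ratio of treated to control wells after 24 h compound treatment at 37 °C. Formazan from a 4 h MTT incubation is solubilised with SDS/DMF and measured at 570 nm.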

The nature of another data set: MTT viability, IEC6. Type of data set: cell-based. Particulars: rat, IEC-6 small intestine epithelial cells, 1000 µM (IC50 exceeded 1000 µM), read-out: viability ± standard deviation at 1000 µM. The procedure, abridged: as §1
In data set [4] the test system is Enterococcus faecium ATCC 35667. Set-up: method as in doi:10.1002/ffj.3238. The following applies: data presented by the authors before; cited from earlier work.
A further data set in a line: MTT viability, HaCaT. Type of data set: cell-based, human. Particulars: human, HaCaT keratinocytes, 1000 µM (IC50 exceeded 1000 µM), read-out: viability ± standard deviation at 1000 µM. The procedure, abridged: as §1
The nature of a further data set: MTT viability, HT29. Type of data set: cell-based, human. Particulars: human, HT29 colorectal adenocarcinoma cells, 1000 µM (IC50 exceeded 1000 µM), read-out: viability ± standard deviation at 1000 µM. The procedure, abridged: as §1
A short description of a further data set: MTT viability, MEWO. Type of data set: cell-based, human. Particulars: human, MEWO malignant melanoma cells, 1000 µM (IC50 exceeded 1000 µM), read-out: viability ± standard deviation at 1000 µM. The procedure, abridged: as §1
A further data set in a line: MTT viability, HL-60. Type of data set: cell-based, human. Particulars: human, HL-60 promyelocytic leukaemia cells, HL-60, MTT, 1000 µM (IC50 exceeded 1000 µM), read-out: viability ± standard deviation at 1000 µM. The procedure, abridged: as §1
Data set [5] has as its system Escherichia coli ATCC 25922. On the set-up: method as in doi:10.1002/ffj.3238. Particulars: data presented by the authors before; cited from earlier work.
Data set [6] relates to Klebsiella pneumoniae ATCC 700603. On the set-up: method as in doi:10.1002/ffj.3238. Particulars: data presented by the authors before; cited from earlier work.
Data set [7] concerns human melanoma MDA/MB‑435 cell lines. Set-up: method as in PMID 19084293. The following applies: cited from earlier work.
In data set [8] the test system is Promyelocytic Leukaemia HL-60. Description: MTT viability, HL-60. Type of data set: cell-based, human. Particulars: Homo sapiens, HL-60, 24 h, HL-60, MTT, range 10–1000 µM, read-out: half maximal inhibitory concentration (IC50), interpolated. The procedure, abridged:
as §1

Data set [9] deals with colon carcinoma HCT-8 cells. Set-up: method as in PMID 19084293. The following applies: cited from earlier work.

Consider `CC(=O)CCC=C(C)C(C)CCC=C(C)C` (centres unmarked) [Compound 6], for which the “Minimum Inhibitory Concentrations MIC” value in data set [1] is listed as 12 µg/mL; in data set [2], 26 µg/mL; in data set [3] it was 18 µg/mL; in [4] it was 16 µg/mL; in data set [5], 14 µg/mL; in data set [6], 14 µg/mL. The viability at 24 h, 1000 µM stood at 83% in “MTT viability, HFIG”; 95% in “MTT viability, IEC6”; 118% in “MTT viability, HaCaT”; 102% in “MTT viability, HT29”; 102% in “MTT viability, MEWO”; 67% in the data set “MTT viability, HL-60”.

In the case of `C=CC(C)(O)CC/C=C(\C)CCC=C(C)C` (centres unmarked) [Nerolidol (2), nerolidol, reference compound], the “Minimum Inhibitory Concentrations MIC” value is reported as 26 µg/mL in [1]; 48 µg/mL in [2]; 38 µg/mL in data set [3]; 32 µg/mL in data set [4]; 46 µg/mL in [5]; 16 µg/mL in data set [6]. Moreover, the viability at 24 h, 1000 µM in “MTT viability, HFIG” worked out at 75%; in “MTT viability, IEC6”, 76%; in “MTT viability, HaCaT”, 102 ± 5%; in “MTT viability, HT29”, 103%; in “MTT viability, MEWO” it was 99%. Moreover, the toxicity entry in data set [7] and in [9] was “no toxicity” throughout. For the same compound, the IC50 in data set [8] was ~135 µM.

As to `CC(=O)CCC=C(C)C(C)CCCC(C)C` (centres unmarked) [Compound 8], the “Minimum Inhibitory Concentrations MIC” value in data set [1] is given as 22 µg/mL; in data set [2] it was 38 µg/mL; in [3], 26 µg/mL; in data set [4] it was 28 µg/mL; in data set [5] it was 18 µg/mL; in data set [6], 18 µg/mL. The viability at 24 h, 1000 µM in the data set “MTT viability, HFIG” turned out to be 81%; in the data set “MTT viability, IEC6”, 97%; in “MTT viability, HaCaT”, 90%; in “MTT viability, HT29”, 111%; in “MTT viability, MEWO”, 94%; in “MTT viability, HL-60” it was 72%.

On to `CC(=O)CCC=C(C)C(C)CC(C)CCC=C(C)C` (centres unmarked) [Compound 11], for which the “Minimum Inhibitory Concentrations MIC” value in data set [1] was 14 µg/mL; in data set [2], 26 µg/mL; in data set [3], 22 µg/mL; in [4] it was 18 µg/mL; in data set [5], 28 µg/mL; in [6] it was 28 µg/mL. For the same compound, the viability at 24 h, 1000 µM in the data set “MTT viability, HFIG” is 102%; in the data set “MTT viability, IEC6”, 81%; in the data set “MTT viability, HaCaT”, 100%; in the data set “MTT viability, HT29”, 92%; in the data set “MTT viability, MEWO”, 112%; in the data set “MTT viability, HL-60”, 59%.

Turning to `CC(=O)CCC=CC(C)CCC=C(C)C` (centres unmarked) [Compound 7], the “Minimum Inhibitory Concentrations MIC” value in data set [1] was 14 µg/mL; in data set [2] it was 26 µg/mL; in data set [3] it was 16 µg/mL; in data set [4], 18 µg/mL; in [5] it was 16 µg/mL; in data set [6], 16 µg/mL. Besides, the viability at 24 h, 1000 µM in the data set “MTT viability, HFIG” came out at 92%; in the data set “MTT viability, IEC6”, 82%; in the data set “MTT viability, HaCaT” it was 101%; in the data set “MTT viability, HT29”, 98%; in “MTT viability, MEWO”, 99%; in “MTT viability, HL-60”, 67%.

Take `CC(=O)CCC=C(C)CC(C)CCC=C(C)C` (centres unmarked) [Compound 9]: the “Minimum Inhibitory Concentrations MIC” value in [1] is 16 µg/mL; in data set [2] it was 28 µg/mL; in data set [3] it was 18 µg/mL; in data set [4], 14 µg/mL; in [5], 28 µg/mL; in data set [6] it was 18 µg/mL. Moreover, the viability at 24 h, 1000 µM was 85% in “MTT viability, HFIG”; 76% in “MTT viability, IEC6”; 89% in the data set “MTT viability, HaCaT”; 107% in “MTT viability, HT29”; 83% in “MTT viability, MEWO”; 69% in “MTT viability, HL-60”.

On to `CC(=O)CCC=C(C)CCC(C)CCC=C(C)C` (centres unmarked) [Compound 10], for which the “Minimum Inhibitory Concentrations MIC” value was 16 µg/mL in data set [1]; 46 µg/mL in data set [2]; 26 µg/mL in data set [3]; 18 µg/mL in data set [4]; 32 µg/mL in data set [5]; 18 µg/mL in data set [6]. In addition, the viability at 24 h, 1000 µM in the data set “MTT viability, HFIG” amounted to 98%; in “MTT viability, IEC6”, 78%; in the data set “MTT viability, HaCaT”, 112%; in “MTT viability, HT29”, 103%; in “MTT viability, MEWO”, 93%; in the data set “MTT viability, HL-60”, 62%.

For the compound `C=CC(C)(O)CC(C)CCC=C(C)C` (centres unmarked) [Compound 15], the “Minimum Inhibitory Concentrations MIC” value is given as 16 µg/mL in data set [1]; 46 µg/mL in data set [2]; 48 µg/mL in [3]; 38 µg/mL in data set [4]; 28 µg/mL in [5]; 16 µg/mL in data set [6]. In addition, the viability at 24 h, 1000 µM in “MTT viability, HFIG” is 96%; in the data set “MTT viability, IEC6”, 110%; in the data set “MTT viability, HaCaT” it was 90%; in the data set “MTT viability, HT29” it was 104%; in “MTT viability, MEWO”, 104%. For the same compound, the IC50 in data set [8] stood at 750 µM.
